Measured values reported in patent US10889591B2, “PDE9 inhibitor and use thereof” (Nanjing TransThera Biosciences Co. Ltd., priority 2017, dated 2021).
Read-outs that look alike come from different tables or passages of the source.

Columns and labels:
[1] = Stability in human liver microsome; conditions: for CLint / k / Original drug residual % at 60 min / T1/2 (min): human liver microsome 0.5 mg protein/mL, compound 1 μM; for k: slope of log remaining amount versus time; for Original drug residual % at 60 min: β-NADPH 1 mM, 37° C.; for half-life at 1 μM: human, liver microsomes
[2] = human; for CLint: microsomes
in vitro = conditions: human, microsomes
[3] = Canine pharmacokinetic evaluation; type: in vivo; conditions: Beagle dogs; for Vz_obs iv (apparent distribution volume) / AUC(0-inf) / half-life / bioavailability / clearance: n = 3; for Tmax / AUC(0-inf) / half-life / bioavailability / clearance: dog, plasma; for Tmax: n = 3, median; for clearance: read-out: Cl_obs iv (clearance rate) (converted)
Description: 1. Animal Administration and Sample Collection
2. Sample Analysis Method
3. Data Processing Method

[4] = Rat pharmacokinetic evaluation; type: in vivo, SD male rats; conditions: male, Sprague-Dawley, plasma, SD rat; for Tmax / AUC(0-t) / half-life: po, intragastric 5 mg/kg; for Tmax: median; for AUC(0-t): read-out: AUClast po; for half-life: read-out: tz1/2 po (terminal elimination half-life) (converted); for bioavailability: dose iv/po 1/5 mg/kg, read-out: F % (absolute bioavailability)
Description: Experimental Example 4: Rat Pharmacokinetic Evaluation of the Compounds of the Invention
Aim: The in vivo pharmacokinetic parameters of the compounds in SD male rats (purchased from Beijing Vital River Animal Technology Co., Ltd.) were evaluated and bioavailability of the compounds was examined.
Animal Administration and Sample Collection:
The solution of compounds 65, 90, 107, 158 was intragastrically administered to SD rat at a dose of 5.0 mg/kg.
The experimental compound 76 was dissolved in 30% DMF+30% PEG400+40% saline to prepare a solution. The solution of compound 76 was intragastrically administered to SD rat at a dose of 5.0 mg/kg.
The experimental compound 76 was dissolved in 30% DMF+30% PEG400+40% saline to prepare a solution.
The experimental compounds 84 and 96 were dissolved in 5% DMSO+10% PEG400+85% (28% HP-β-CD) saline to prepare a solution. The solution of compounds 84 and 96 was intragastrically administered to SD rat at a dose of 5.0 mg/kg.
The experimental compounds 84 and 96 were dissolved in 5% DMSO+10% PEG400+85% (28% HP-β-CD) saline to prepare a solution.
The animals were fixed. The tail was heated with a water bath at 10 min before each time point. About 100 μL of blood from tail vein was collected, and then placed in an anti-coagulation tube containing EDTA-K2 after collection. Blood samples were centrifuged at 8000 rpm at 4° C. for 6 min to obtain plasma samples.
The concentration of test sample was output using Analyst 1.6.1 from AB SCIEX.

[5] = Rat pharmacokinetic evaluation; type: in vivo, SD male rats; conditions: SD rat, intravenous bolus 1 mg/kg; for AUC(0-t) / clearance / half-life: male, Sprague-Dawley, plasma; for AUC(0-t): read-out: AUClast iv; for clearance: read-out: Cl_obs iv (clearance rate) (converted); for half-life: read-out: tz1/2 iv (terminal elimination half-life) (converted)
[6] = intravenous bolus 1 mg/kg, read-out: AUCinf iv
[7] = intravenous bolus 1 mg/kg, read-out: tz1/2 iv (terminal elimination half-life) (converted)

In the case of `N#Cc1c(Nc2ccc(Cl)cc2)c2ccncc2[nH]c1=O` [Compound 18, 4-((4-chlorophenyl)amino)-2-oxo-1,2-dihydro-1,7-naphthyridin-3-carbonitrile], the CLint [1] is reported as 0.1244 mL · min^−1 · mg^−1 proteins, the “k” value [1] is reported as 0.727 min⁻¹ and the “Original drug residual % at 60 min” value [1] is reported as 5.19%. For the same molecule, the half-life at 1 μM [1] was 0.186 h.
For `N#Cc1c(N2CC[C@@H](n3cccn3)C2)c2ccncc2[nH]c1=O` [Compound 19, (R)-4-(3-(1H-pyrazol-1-yl)pyrrolidin-1-yl)-2-oxo-1,2-dihydro-1,7-naphthyridin-3-carbonitrile], the CLint [1] was 0.0012 mL · min^−1 · mg^−1 proteins, the “k” value [1] was 0.191 min⁻¹ and the “Original drug residual % at 60 min” value [1] was 93.4%. The half-life at 1 μM [1] was 19.2 h.
With `N#Cc1c(N2CCC3(CC2)CC3)c2cc(C(O)CO)ncc2[nH]c1=O` (stereo not drawn) [Compound 32, 6-(1,2-dihydroxyethyl)-2-oxo-4-(6-azaspiro[2.5]octane-6-yl)-1,2-dihydro-1,7-naphthyridin-3-carbonitrile] the “T1/2 (min)” value [1] was “→∞”, the “k” value [1] was -0.3760 min⁻¹ and the “Original drug residual % at 60 min” value [1] was 99.8%.
In the case of `N#Cc1c(N2CCC3(CCC3)CC2)c2cc(N3CC(O)C3)ncc2[nH]c1=O` [Compound 51, 6-(3-hydroxyazetidin-1-yl)-2-oxo-4-(7-azaspiro[3.5]nonane-7-yl)-1,2-dihydro-1,7-naphthyridin-3-carbonitrile], the “Original drug residual % at 60 min” value [2] is reported as 74.1%, the “k” value [2] is reported as 0.9418 min⁻¹ and the CLint [2] is reported as 0.0110 mL · min^−1 · mg^−1 proteins. It also gave a half-life (in vitro) of 2.1 h.
In the case of `N#Cc1c(N2CCC3(CCC3)CC2)c2cc(N3CC(N)C3)ncc2[nH]c1=O` [Compound 53, 6-(3-aminoazetidin-1-yl)-2-oxo-4-(7-azaspiro[3.5]nonane-7-yl)-1,2-dihydro-1,7-naphthyridin-3-carbonitrile], the “Original drug residual % at 60 min” value [2] is reported as 91.4%, the “k” value [2] is reported as 0.4821 min⁻¹ and the CLint [2] is reported as 0.0022 mL · min^−1 · mg^−1 proteins. The half-life (in vitro) was 10.5 h.
For `Cc1cc2c(N3CCC4(CCC4)CC3)c(C#N)c(=O)[nH]c2cn1` [Compound 65, 6-methyl-2-oxo-4-(7-azaspiro[3.5]nonane-7-yl)-1,2-dihydro-1,7-naphthyridin-3-carbonitrile], the “Vz_obs iv (apparent distribution volume)” value ([3]; intravenous bolus 1 mg/kg) was 0.66 L/kg, the Tmax ([3]; po, intragastric 2 mg/kg) was 0.5 h and the AUC(0-inf) ([3]; po, intragastric 2 mg/kg, read-out: AUCinf po) was 543 ng·h/mL. For the same molecule, the half-life ([3]; po, intragastric 2 mg/kg, read-out: tz1/2 po (terminal elimination half-life) (converted)) was 0.47 h, the bioavailability ([3]; dose iv/po 1/2 mg/kg) was 25.5% and the AUC(0-inf) [3, 6] was 1060 ng·h/mL. The clearance ([3]; intravenous bolus 1 mg/kg) was 15.7 mL/min/kg, the half-life [3, 7] was 0.49 h and the Tmax [4] was 0.5 h. The AUC(0-t) [4] was 3000 ng·h/mL, the half-life [4] was 2.25 h and the bioavailability [4] was 51.8%. For the same molecule, the “Vz_obs iv (apparent distribution volume)” value [5] was 1.75 L/kg, the AUC(0-t) [5] was 1240 ng·h/mL and the clearance [5] was 13.8 mL/min/kg. The half-life [5] was 1.47 h.
In the case of `COc1cc2c(N3CCC4(CCC4)CC3)c(C#N)c(=O)[nH]c2cn1` [Compound 66, 6-methoxy-2-oxo-4-(7-azaspiro[3.5]nonane-7-yl)-1,2-dihydro-1,7-naphthyridin-3-carbonitrile], the “k” value [1] is reported as -0.515 min⁻¹ and the “Original drug residual % at 60 min” value [1] is reported as 101%.
For `N#Cc1c(N2CCC3(CC2)CC3)c2ncccc2[nH]c1=O` [Compound 80, 2-oxo-4-(6-azaspiro[2.5]octane-6-yl)-1,2-dihydro-1,5-naphthyridin-3-carbonitrile], the “Original drug residual % at 60 min” value [2] was 41.7%, the “k” value [2] was 0.9877 min⁻¹ and the CLint [2] was 0.0292 mL · min^−1 · mg^−1 proteins. It also gave a half-life (in vitro) of 0.792 h.
For `COC1(C)CCN(c2c(C#N)c(=O)[nH]c3cnccc23)CC1` [Compound 81, 4-(4-methoxy-4-methylpiperidin-1-yl)-2-oxo-1,2-dihydro-1,7-naphthyridin-3-carbonitrile], the CLint [1] was 0.0024 mL · min^−1 · mg^−1 proteins, the “k” value [1] was 0.0012 min⁻¹ and the “Original drug residual % at 60 min” value [1] was 94.6%. For the same molecule, the half-life at 1 μM [1] was 9.63 h.
In the case of `CC(C)(O)c1cc2c(N3CCC4(CCC4)CC3)c(C#N)c(=O)[nH]c2cn1` [Compound 82, 6-(2-hydroxypropan-2-yl)-2-oxo-4-(7-azaspiro[3.5]nonane-7-yl)-1,2-dihydro-1,7-naphthyridin-3-carbonitrile], the “Original drug residual % at 60 min” value [2] is reported as 72.4%, the “k” value [2] is reported as 0.9760 min⁻¹ and the CLint [2] is reported as 0.0112 mL · min^−1 · mg^−1 proteins. It also gave a half-life (in vitro) of 2.07 h.
With `N#Cc1c(N2CCC3(CC2)CC3)c2cc(C(=O)O)ncc2[nH]c1=O` [Compound 83, 3-cyano-2-oxo-4-(6-azaspiro[2.5]octane-6-yl)-1,2-dihydro-1,7-naphthyridin-6-carboxylic acid] the “T1/2 (min)” value [1] was “→∞”, the “k” value [1] was 0.5421 min⁻¹ and the “Original drug residual % at 60 min” value [1] was 104.1%.
With `CC(C)(O)c1cc2c(N3CCC4(CC3)CC4)c(C#N)c(=O)[nH]c2cn1` [Compound 84, 6-(2-hydroxypropan-2-yl)-2-oxo-4-(6-azaspiro[2.5]octane-6-yl)-1,2-dihydro-1,7-naphthyridin-3-carbonitrile] the Tmax [4] was 1 h, the AUC(0-t) [4] was 7580 ng·h/mL and the half-life [4] was 3.24 h. For the same molecule, the bioavailability [4] was 62.5%, the “Vz_obs iv (apparent distribution volume)” value [5] was 1.16 L/kg and the AUC(0-t) [5] was 2430 ng·h/mL. For the same molecule, the clearance [5] was 8.17 mL/min/kg and the half-life [5] was 1.89 h.
For `CNC(=O)c1cc2c(N3CCC4(CC3)CC4)c(C#N)c(=O)[nH]c2cn1` [Compound 96, 3-cyano-N-methyl-2-oxo-4-(6-azaspiro[2.5]octane-6-yl)-1,2-dihydro-1,7-naphthyridin-6-formamide], the “Vz_obs iv (apparent distribution volume)” value [5] was 0.57 L/kg, the AUC(0-t) [5] was 769 ng·h/mL and the clearance [5] was 22 mL/min/kg. For the same molecule, the half-life [5] was 0.3 h.
For `CCc1cc2c(N3CCC(C)(OC)CC3)c(C#N)c(=O)[nH]c2cn1` [Compound 107, 6-ethyl-4-(4-methoxy-4-methylpiperidin-1-yl)-2-oxo-1,2-dihydro-1,7-naphthyridin-3-carbonitrile], the “Vz_obs iv (apparent distribution volume)” value ([3]; intravenous bolus 1 mg/kg) was 2.05 L/kg, the Tmax ([3]; po, intragastric 1 mg/kg) was 0.5 h and the AUC(0-inf) ([3]; po, intragastric 1 mg/kg, read-out: AUCinf po) was 757 ng·h/mL. The half-life ([3]; po, intragastric 1 mg/kg, read-out: tz1/2 po (terminal elimination half-life) (converted)) was 2.56 h, the bioavailability ([3]; dose iv/po 1/1 mg/kg) was 61.5% and the AUC(0-inf) [3, 6] was 1230 ng·h/mL. For the same molecule, the clearance ([3]; intravenous bolus 1 mg/kg) was 16 mL/min/kg, the half-life [3, 7] was 1.64 h and the Tmax [4] was 0.5 h. The AUC(0-t) [4] was 1940 ng·h/mL, the half-life [4] was 2.68 h and the bioavailability [4] was 56.8%. The “Vz_obs iv (apparent distribution volume)” value [5] was 2.13 L/kg, the AUC(0-t) [5] was 748 ng·h/mL and the clearance [5] was 24.2 mL/min/kg. The half-life [5] was 1.25 h, the CLint [1] was 0.0046 mL · min^−1 · mg^−1 proteins and the “k” value [1] was 0.0023 min⁻¹. For the same molecule, the “Original drug residual % at 60 min” value [1] was 88.5% and the half-life at 1 μM [1] was 5.02 h.
In the case of `COC1(C)CCN(c2c(C#N)c(=O)[nH]c3cnc(C(C)(C)O)cc23)CC1` [Compound 109, 6-(2-hydroxypropan-2-yl)-4-(4-methoxy-4-methylpiperidin-1-yl)-2-oxo-1,2-dihydro-1,7-naphthyridine-3-carbonitrile], the CLint [1] is reported as 0.0020 mL · min^−1 · mg^−1 proteins, the “k” value [1] is reported as 0.4444 min⁻¹ and the “Original drug residual % at 60 min” value [1] is reported as 91.9%. For the same molecule, the half-life at 1 μM [1] was 11.6 h.
With `COCCOc1cc2c(N3CCC(C)(OC)CC3)c(C#N)c(=O)[nH]c2cn1` [Compound 145, 4-(4-methoxy-4-methylpiperidin-1-yl)-6-(2-methoxyethoxy)-2-oxo-1,2-dihydro-1,7-naphthyridin-3-carbonitrile] the CLint [1] was 0.0038 mL · min^−1 · mg^−1 proteins, the “k” value [1] was 0.0019 min⁻¹ and the “Original drug residual % at 60 min” value [1] was 88.2%. For the same molecule, the half-life at 1 μM [1] was 6.08 h.
For `COC1(C)CCN(c2c(C#N)c(=O)[nH]c3cnc(C)cc23)CC1` [Compound 158, 4-(4-methoxy-4-methylpiperidin-1-yl)-6-methyl-2-oxo-1,2-dihydro-1,7-naphthyridin-3-carbonitrile], the CLint [1] was 0.0026 mL · min^−1 · mg^−1 proteins, the “k” value [1] was 0.0013 min⁻¹ and the “Original drug residual % at 60 min” value [1] was 92.6%. The half-life at 1 μM [1] was 8.88 h.
